According to publication PMC5603587, “Pharmacological inhibition of CaMKK2 with the selective antagonist STO-609 regresses NAFLD” (Scientific Reports, 2017):
Like-named read-outs stand apart in the source and are kept apart here.

How the values were obtained:
[1] = plasma pharmacokinetics after a single i.p. dose; type: in vivo; conditions: male, C57BL/6 J, ip, mouse; for AUC(0-t): read-out: AUC 0-24, plasma
Description: (§1) Plasma samples were prepared by mixing 5.0 μl of plasma with 45 μl of ice-cold MeOH followed by centrifugation at 15,000 × g for 15 min to remove protein. The resulting supernates were transferred into autosampler vials for analysis. Tissues (liver, intestine, kidney, pancreas, spleen, lung, heart, testis, white adipose tissue, gastrocnemius and brain) were weighed and homogenized in H2O/MeOH (1:1 v/v, 100 mg tissue in 600 μl). A volume of 200 μl of MeOH was added to 100 μl of tissue extracts. After vortexing and centrifugation (15 min at 15,000 × g), each supernate was transferred to an autosampler vial and 5.0 μl was injected to a system combining ultra-high performance liquid chromatography (UHPLC) and quadrupole time of flight mass spectrometry (QTOFMS) for analysis. The concentration of STO-609 was calculated based on standard curves in the corresponding matrices. The pharmacokinetic parameters were calculated using non-compartmental analysis with PKSolver[20]. The linear trapezoidal rule was used for area under the curve (AUC) calculation.
(§2) Separation of STO-609 and its metabolites was achieved using a LC-QTOFMS system (Agilent Technologies, Santa Clara, CA) equipped with a 100 mm × 2.1 mm (Agilent XDB C18) column as previously described. Briefly, the column temperature was maintained at 45 °C. The flow rate was maintained at 0.3 ml/min with a gradient ranging from 2% to 98% aqueous acetonitrile containing 0.1% formic acid over a 15 min run. QTOFMS was operated in positive mode with electrospray ionization. Ultra high pure nitrogen was applied as the drying (12 L/min) and collision gas. The drying gas temperature was set at 325°C and nebulizer pressure was maintained at 35 psi. Capillary voltages were set at 3.5 kV. During mass spectrometry, real time mass correction and accurate mass were achieved by continuously measuring standard reference ions at m/z 121.0508, 922.0098 in the positive mode. The MS/MS of STO-609 and its metabolites was performed in targeted mode with a default isolation width of 4 m/z and collision energy ramp ranging from 20 to 50 V. Mass chromatograms and mass spectra were acquired by MassHunter® Workstation data Acquisition software (Agilent, Santa Clara, CA) in centroid and profile formats from m/z 100 to 1000. The acquisition rate was set as 1.5 spectra per second. Statistical analysis was conducted using Student’s independent t-test. Data are presented as mean ± s.e.m.

[2] = tissue distribution after a single i.p. dose; type: in vivo; conditions: ip, 30 μM/kg i.p., mouse; for Cmax: 30 μM/kg
Description: as §1, §2

## O=C(O)c1ccc2c3c1cccc3c(=O)n1c3ccccc3nc21 [STO-609^S]
[1]; 30 μM/kg i.p.
  AUC(0-inf): 317 µM·h
  CL/F: 1.5 mL/min/kg
  Cmax: 32600 nM
  AUC(0-t): 245 µM·h
[1]; 30 μM/kg i.p., read-out: t½, plasma (converted)
  half-life: 12.2 h
[1]; 300 μM/kg i.p.
  AUC(0-inf): 3250 µM·h
  CL/F: 1.5 mL/min/kg
  Cmax: 473000 nM
  AUC(0-t): 2930 µM·h
[1]; 300 μM/kg i.p., read-out: t½, plasma (converted)
  half-life: 7.93 h
[1]; 30 and 300 μM/kg i.p., read-out: t½, plasma, over the doses
  half-life: 8 to 12 h
[2]; C57BL/6J, intestine, read-out: t½, intestine (converted)
  half-life: 3.85 h
[2]; C57BL/6J, kidney, read-out: t½, kidney (converted)
  half-life: 8.5 h
[2]; C57BL/6J, intestine, read-out: Cmax, intestine
  Cmax: 517 nM
[2]; C57BL/6J, intestine, read-out: Cmax, intestine (text)
  Cmax: ~500 nM
[2]; C57BL/6J, pancreas, read-out: Cmax, pancreas
  Cmax: 329 nM
[2]; C57BL/6J, pancreas, read-out: t½, pancreas (converted)
  half-life: 3.18 h
[2]; C57BL/6J, spleen, read-out: t½, spleen (converted)
  half-life: 4 h
[2]; male, C57BL/6 J, brain, read-out: t½, brain (converted)
  half-life: 5.21 h
[2]; male, C57BL/6 J, gastrocnemius, read-out: t½, gastrocnemius (converted)
  half-life: 5.83 h
[2]; male, C57BL/6 J, heart, read-out: t½, heart (converted)
  half-life: 3.01 h
[2]; male, C57BL/6 J, liver, read-out: t½, liver (converted)
  half-life: 3.74 h
[2]; male, C57BL/6 J, lung, read-out: t½, lung (converted)
  half-life: 3.24 h
[2]; male, C57BL/6 J, gastrocnemius, read-out: Cmax, gastrocnemius
  Cmax: 84 nM
[2]; male, C57BL/6 J, heart, read-out: Cmax, heart
  Cmax: 293 nM
[2]; male, C57BL/6 J, spleen, read-out: Cmax, spleen
  Cmax: 341 nM
[2]; male, C57BL/6 J, testis, read-out: Cmax, testis
  Cmax: 209 nM
[2]; male, C57BL/6 J, white adipose tissue, read-out: Cmax, white adipose tissue
  Cmax: 137 nM
[2]; male, C57BL/6 J, testis, read-out: t½, testis (converted)
  half-life: 3.95 h
[2]; male, C57BL/6 J, white adipose tissue, read-out: t½, white adipose tissue (converted)
  half-life: 3.93 h
